Where “and” joins values, the source holds several entries; their conditions need not be identical. Identical values can stand only once. Counter-ions that a name gives are not always drawn.
What was measured:
[1] = target: T1, hnRNPA2B1-EXOmotif interaction (Homo sapiens, UniProt P22626); assay: AlphaScreen dose-response, inhibition of hnRNPA2B1-EXOmotif RNA interaction; assay type: binding; settings: AlphaScreen dose-response with RNA EXOmotif, one site fitting
T1 construct: purified a human full-length, GST-tagged protein expressed in Escherichia coli cells; made in house; host or cells: E. coli BL21 (DE3)
T1 sequence (P22626 whole entry): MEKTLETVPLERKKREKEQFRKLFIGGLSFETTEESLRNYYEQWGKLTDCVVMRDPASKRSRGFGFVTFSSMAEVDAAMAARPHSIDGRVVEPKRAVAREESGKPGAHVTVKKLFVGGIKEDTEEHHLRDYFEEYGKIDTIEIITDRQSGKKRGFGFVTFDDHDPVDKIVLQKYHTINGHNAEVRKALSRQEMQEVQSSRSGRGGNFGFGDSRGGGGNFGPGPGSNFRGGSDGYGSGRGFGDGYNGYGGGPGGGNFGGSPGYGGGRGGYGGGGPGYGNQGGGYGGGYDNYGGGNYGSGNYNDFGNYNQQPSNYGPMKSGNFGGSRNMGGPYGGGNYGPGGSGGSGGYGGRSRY
Experimental: The assays were performed in OptiPlate-384-well plates (PerkinElmer, 6007299) in 20 μl final volume. The ligands were diluted in AlphaBuffer [25 mM HEPES, pH 7.4, 100 mM NaCl, 0.01% bovine serum albumin (BSA)] and tested using AlphaScreen GST Detection Kit (PerkinElmer, 6760603C). […] For the reactions, 4 μl of the RNA probes were first added to the plate, then 16 μl of a mix containing all the other components was added, and the plate was incubated at room temperature for 1 h in the dark.
The high-throughput drug screening was performed in a total volume of 20 μl using 17 nM of RNA EXO motif (chosen below the hooking point), 30 nM GST-hnRNPA2B1, and 250 nM of compounds belonging to mass spectrometry (MS) Spectrum Collection library (MicroSource, 2000 compounds). Compounds were dispensed into white 384-well Optiplates (PerkinElmer) using Echo 650 acoustic dispenser (Beckman Coulter) followed by the addition of protein in Alpha Buffer using the EL460 dispenser (BioTek). After 15 min of incubation, RNA probes were added by Echo 650 acoustic dispenser, while Donor and Acceptor beads from the GST detection kit (Perkin Elmer) were dispensed by EL460 instrument. Following 60 min of incubation, Alpha signal was detected using Enspire plate reader instrument (PerkinElmer). The raw Alpha counts were normalized to Dimethyl sulfoxide (DMSO)-treated controls within every plate.

[2] = system: hnRNPA2B1 protein association with purine-rich RNA probe; assay: RNA pull-down with biotinylated EXOmotif probe after cell treatment, immunoblotting; assay type: cell-based, mouse; settings: NSC34 cells, 6 h, 5 μM compound
Experimental: To prepare native protein lysates, 1–3 × 10^6 NSC34 cells were lysed in buffer R-Lysis [25 mM HEPES, pH 7.5, 100 mM NaCl, 1× protease inhibitor (Thermo Fisher, 78429)] and subjected to a water-bath sonication (35–40 amplitude, 6–7 cycles of 7 s on and 45 s off). After a centrifugation at 14 000 rpm for 20 min at 4°C, the supernatant was collected and 200 μg were incubated with 5 μl of buffer equilibrated Dynabeads^TM M-280 Streptavidin (Invitrogen, 11205D) for 15 min at 4°C in rotation to perform a pre-clearing step. After the magnetic separation, the pre-cleared lysate was incubated with 10 μl of 100 μM RNA biotinylated probes (or 400 ng of biotinylated EV-RNA) and incubated for 1 h at 4°C in rotation. Then, 5 μl/sample of beads were added and the sample were put again in rotation for 20 min at 4°C. […]
Cells were lysed in lysis buffer [50 mM Tris–HCl, pH 7.4, 150 mM NaCl, 1 mM EDTA, 0.25% NP-40, 0.1% Triton X-100, 0.1% sodium dodecyl sulphate, 1× protease inhibitor (Thermo Fisher, 78429)]. […] The signal was measured with Amersham ECL HRP-Conjugated Antibodies (Cytiva) using BioRad Chemidoc XRS+.

[3] = system: EV miR-221 from NSC34 cells; assay: ddPCR of miR-221-3p in NSC34-derived EV-RNA; assay type: cell-based, mouse; settings: NSC34-derived EVs, 6 h treatment
Experimental: EVs were isolated from HEK293T, NSC34, and smNPC-derived motor neurons using nickel-based isolation (NBI) or differential ultracentrifugation (UC). NBI protocol was performed as already described. Briefly, after a first centrifugation step at 2800 × g for 10 min, nickel beads were incubated for 30 min with serum-free media collected from cells in a ratio of 25 μl of beads per ml of medium. After a 2 min centrifugation at 600 g, particles were eluted from the beads by adding 1× elution buffer made of Solution A [16 mM ethylenediaminetetraacetic acid (EDTA), UltraPure, pH 8.0, Thermo Fisher] and Solution B (10 mM NaCl, 225 μM citric acid, Sigma–Aldrich) diluted five times in phosphate-buffered saline (PBS). After 15 min incubation at 28°C in a thermoshaker, the EVs were retrieved by 1-min centrifugation at 1800 × g and subjected to the following characterization. NBI was used to recover polydisperse EVs and include the RNA contribution from these for reverse proteomics experiments. The EV-RNA for reverse proteomics was pooled from three consecutive EV isolation procedures performed on a total of 30 T75 flasks (10 flasks each) of NSC34 cells grown until 80% confluence under standard conditions before washing with PBS and incubating with serum-free medium with glutamine and antibiotics. Differential UC was applied as an alternative EV isolation protocol to confirm the detection of hnRNPA2B1 protein. UC was performed by a SW 32 Ti swinging bucket rotor in an Optima XPN-100 ultracentrifuge (Beckman Coulter, Brea, CA, USA). The cell-conditioned serum-free media, after the first centrifugation step at 2800 × g for 10 min, was put in open-top Ultra-Clear centrifuge tubes (Beckman Coulter-344058) and subjected to 100 000 × g (100 K) UC for 70 min at 4°C under vacuum, with or without an additional step at 10 000 × g (10 K) to first sediment larger particles. Then the supernatant was removed, and the pellet was resuspended in 0.22 μm filtered PBS. Differential UC alone, consisting of 2800 × g for 10 min and 100 000 × g for 70 min, was applied for experiments reported in Fig. 5. […]
RNA from cells was extracted using TRI Reagent® (T9424, Sigma) following the manufacturer’s instructions. Thermo Fisher Nanodrop 2000 Spectrophotometer was used to assess the purity and quantity of extracted RNA. […] The elution was in 10–20 μl of RNase-free water and the RNA profiling and quantification was assessed by Agilent 2100 Bioanalyzer and RNA 6000 Pico Kit (5067-1513). Cell- and EV-RNAs were also analysed with DNF-472 HS RNA (15 nt) Kit (Agilent Technologies, Santa Clara, CA), according to the manufacturer. […] Results were analysed with Agilent ProSize data analysis software, that allows the analysis of RNA size, concentration and quality. […]

EXO-motif RNA probe = assay: Absorbance scan of compounds mixed with EXO-motif RNA; assay type: binding; settings: EXO-motif RNA probe, 1:5 micromolar ratio
Experimental: (§1) Five μM RNA EXO motif were mixed with 25 μM compounds in AlphaBuffer (25 mM HEPES, pH 7.4, 100 mM NaCl, 0.01% BSA) to a final volume of 20 μl. Absorbance spectrum (200–530 nm) was measured using Tecan Spark® microplate reader with a NanoQuant plate at room temperature. In fluorescence indicator displacement (FID), a 2× final concentration of Midori green advanced (Resnova) was added to the samples and the melting curve measured using Bio-Rad CFX96™ System from 30°C to 90°C.

[4] = system: hnRNPA2B1 and TDP43 bound RNA (miR-221, miR-1910); assay: RNA immunoprecipitation (RIP) on cytoplasmic lysates of treated NSC34 cells; assay type: cell-based, mouse; settings: 6 h treatment, anti-hnRNPA2B1 and anti-TDP43 RIP
Experimental: Flow cytometry of a fraction of RNA immunoprecipitation (RIP) experiments, consisting of RNA/protein-antibody-bead complexes, was performed on the same instrument using a sequential gating with Streptavidin beads alone ± antibodies (this signal corresponded to background). Pyronin Y (PY) was used at a final concentration of 50 ng/ml and the PY-positive events recorded for 1 min.
Approximately 2 × 10^6 cells were used for each RIP experiment, performed as already described, without cross-linking steps and using 0.5 μg/ml of antibodies. Beads-precipitated samples were divided for immunoblotting or TRIzol-based RNA isolation. Densitometric analysis obtained using Image J software (v.1.54). miRNA TaqMan probes were bought from Thermo Fisher with the following codes: miR-221 (477 981), miR-1910 (479 581), and miR-126 (4 427 975).

NSC34 cells = assay: Nanodrop quantification of total intracellular RNA after treatment; assay type: cell-based, mouse; settings: 6 h treatment
Experimental: RNA from cells was extracted using TRI Reagent® ([…], Sigma) following the manufacturer's instructions. Thermo Fisher Nanodrop 2000 Spectrophotometer was used to assess the purity and quantity of extracted RNA. RNA from EVs was extracted using Single Cell RNA Isolation Kit (51800, Norgen) following the manufacturer's protocol. The elution was in 10-20 μl of RNase-free water and the RNA profiling and quantification was assessed by Agilent 2100 Bioanalyzer and RNA 6000 Pico Kit (5067-1513). Cell- and EV-RNAs were also analysed with DNF-472 HS RNA (15 nt) Kit (Agilent Technologies, Santa Clara, CA), according to the manufacturer. Briefly, 2 μl of RNA samples concentrated within a range of 50-5000 pg/μl and RNA Ladder were added to Diluent Marker, denatured at 70°C for 2 min and loaded. Results were analysed with Agilent ProSize data analysis software, that allows the analysis of RNA size, concentration and quality. Through a Peak Analysis it was possible to access the concentration of each peak recognized by the software. Half a nanogram of extracted RNA from cells and EVs was used as input for complementary DNA (cDNA) synthesis. cDNA was produced using TaqManTM Advanced miRNA cDNA Synthesis Kit (Applied BiosystemsTM, A28007) following manufacturers' instructions and used for droplet digital polymerase chain reaction (PCR) experiments.

EXO-motif RNA = assay: Fluorescence indicator displacement (FID) melting curve, EXO-motif RNA; assay type: binding; settings: 5 μM RNA, 25 μM compound, Midori green
Experimental: as §1

GST-hnRNPA2B1 [5] = target: T2, GST-hnRNPA2B1 (Homo sapiens, UniProt P22626 1-353); assay: AlphaScreen saturation binding; AlphaScreen: 25 mM HEPES pH 7.4, 100 mM NaCl, 0.01% BSA, RT 1 h; REMSA: 20 mM HEPES pH 7.5, 50 mM KCl, 0.5 ug BSA, 0.25% glycerol, RT; pull-down: 25 mM HEPES pH 7.5, 100 mM NaCl, 4 C; settings: protein: recombinant; tags: N-terminal GST (pGEX-6P-1); label: 5'-biotin-TEG; single strand; weak predicted secondary structure (-0.5 kcal/mol)
T2 sequence (P22626 whole entry): as above

GST-hnRNPA2B1 [6] = target: T2, GST-hnRNPA2B1; assay: AlphaScreen kinetics (koff/kon); 30 nM protein; kon 523664 M-1 min-1, koff 0.02091 min-1; AlphaScreen: 25 mM HEPES pH 7.4, 100 mM NaCl, 0.01% BSA, RT 1 h; REMSA: 20 mM HEPES pH 7.5, 50 mM KCl, 0.5 ug BSA, 0.25% glycerol, RT; pull-down: 25 mM HEPES pH 7.5, 100 mM NaCl, 4 C; settings: protein: recombinant; tags: N-terminal GST (pGEX-6P-1); label: 5'-biotin-TEG; single strand; weak predicted secondary structure (-0.5 kcal/mol)
GST-hnRNPA2B1 [7] = target: T2, GST-hnRNPA2B1; assay: AlphaScreen saturation binding; near-background counts; AlphaScreen: 25 mM HEPES pH 7.4, 100 mM NaCl, 0.01% BSA, RT 1 h; REMSA: 20 mM HEPES pH 7.5, 50 mM KCl, 0.5 ug BSA, 0.25% glycerol, RT; pull-down: 25 mM HEPES pH 7.5, 100 mM NaCl, 4 C; settings: protein: recombinant; tags: N-terminal GST (pGEX-6P-1); label: 5'-biotin-TEG; single strand

## O=C(O)C1=CC(=C(c2ccc(O)c(C(=O)O)c2)c2ccc(O)c(C(=O)O)c2)C=CC1=O [ATA, aurin tricarboxylic Acid, reference compound]
[1]
  IC50: ~250 nM and 250 nM

## C=C1c2cccc(O)c2C(=O)C2=C(O)[C@]3(O)C(=O)C(C(N)=O)=C(O)[C@@H](N(C)C)[C@@H]3[C@@H](O)[C@H]12 [MH, methacycline hydrochloride, reference compound]
[1]
  IC50: 100 nM
[2]
  association of hnRNPA2B1 protein with exogenous purine-rich RNA probe: most effective
[3]
  vesicular miR-221, copy number normalized on Y3 RNA and DMSO: vesicular depletion

## CC(C)=CC1C(C(=O)OCc2cccc(Oc3ccccc3)c2)C1(C)C (centres unmarked) [P, phenotrin]
[1]
  IC50: ~120 nM and 122 nM
EXO-motif RNA probe
  spectroscopic changes at 230 nm: main spectroscopic changes
[4]
  percentage of bound targets (miR-221, miR-1910): significantly reduced
NSC34 cells
  accumulation of intracellular RNAs: significantly higher
[3]
  vesicular miR-221, copy number normalized on Y3 RNA and DMSO: vesicular depletion

## O=C(O[C@@H]1Cc2c(O)cc(O)cc2O[C@@H]1c1cc(O)c(=O)c2c(O)c(O)cc([C@H]3Oc4cc(O)cc(O)c4C[C@H]3OC(=O)c3cc(O)c(O)c(O)c3)c2c1)c1cc(O)c(O)c(O)c1 [TD, theaflavin digallate]
[3]
  vesicular miR-221, copy number normalized on Y3 RNA and DMSO: vesicular depletion

## neomycin [reference compound]
EXO-motif RNA
  thermal shift of the EXO-motif RNA: 6.3 °C

## GGGGAGGUUAGGGAGGAGGGGGGUAGGCGCC (ssRNA) [EXOmotif RNA (biotin)]
GST-hnRNPA2B1 [5]
  Kd: 3.4 ± 1.6 nM
GST-hnRNPA2B1 [6]
  Kd: 40 ± 3 nM

## AGGACUGC (ssRNA) [RNA 276]
GST-hnRNPA2B1 [7]
  binding result: no binding

— publication PMC11915509, “Small molecule inhibitors of hnRNPA2B1–RNA interactions reveal a predictable sorting of RNA subsets into extracellular vesicles” (Nucleic Acids Research, 2025)
